According to US20080200422A1, “Methods for reduction of adipose tissue mass” (priority 2007, published 2008):
Entries after “also recorded” stand apart in the source; their conditions may differ.

Assays:
[1] = test system: leucine-deprived GCN2−/− mice; assay: C75 treatment of leucine-deprived GCN2−/− mice (liver steatosis, liver gene expression); assay type: in vivo; conditions: 20 mg/kg IP, three doses over seven days
Experimental: FIG. 5. Leucine deprivation induced-liver steatosis in GCN2^−/− mice is prevented by inhibition of FAS expression. GCN2 KO (−/−) mice were fed a leucine-deprived diets for seven days and were given C75 at a dose of 20 mg/Kg body weight in 200 μl RPMI or only RPMI every other day by IP injection during this period. A. Liver histology for GCN2 KO mice. Sections from animals were stained with oil red O, magnification 40×. Lipid deposits are detected as red-stained areas. B and C. Expression of FAS mRNA (B) and FAS protein (C, top: western blot; bottom: FAS protein relative to tubulin and normalized to control diet group within same strains of mice). *Effect of with C75 treatment fed on (−) leu diet versus without C75 treatment fed on (−) leu diet or control diet in GCN2 KO mice (two-tailed student t-test; p<0.0001.). [KO: control diet (n=6); (−) leu diet (n=5); (−) leu diet+C75 (n=3)]. D and E. Expression of PPARα and ACO mRNA. *Effect of with C75 treatment versus without C75 treatment on either (−) leu diet (*a: p<0.001) or control diet group (*b: p<0.001) in GCN2 KO mice (two-tailed student t-test; p<0.0001.). [KO: control diet (n=6); (−) leu diet (n=5); (−) leu diet+C75 (n=3)].
Wild-type C57BL/6J (GCN2^+/+) mice were obtained from Jackson Laboratories (Bar Harbor, Me.). […] Food intake and body weight were recorded daily. […] Body, liver and adipose tissue weight were recorded at the time of sacrifice. […]
Total RNA was prepared from frozen liver using an RNase mini kit (Qiagen). Quantitative RT-PCR was performed using co-amplification of GAPDH as an internal control. 1 μg of RNA was reverse transcribed with random primers (Promega) and then quantitative PCR was performed with the qPCR core kit for sybergreen I (Eurogentec) by 7000 sequence detection system (Applied Biosystems). […] At a specific threshold in the linear amplification stage, the cycle differences between amplified GAPDH and cDNA of interest were used to determine the relative quantity of genes of interest. […]

liver FAS expression = conditions: 24 hrs after a single IP injection (30 mg/kg body weight); cited from earlier work
GCN2−/− mice = assay: PPARα agonist WY compound in leucine-deprived GCN2−/− mice (fatty liver); assay type: in vivo

## C=C1C(=O)OC(CCCCCCCC)C1C(=O)O (centres unmarked) [C75]
[1]
  FAS mRNA and protein levels in liver: repressed
  levels of PPARα and ACO mRNA in liver: reduced
  liver steatosis: prevented
Liver FAS expression
  liver FAS expression: inhibit FAS expression significantly; also recorded: significant reductions

## Cc1cccc(Nc2cc(Cl)nc(SCC(=O)O)n2)c1C [WY compound]
GCN2−/− mice
  development of fatty liver: not able to prevent
